# Laboratory results reported in patent US20220395500A1, “SMALL MOLECULE ACTIVATORS OF INTERFERON REGULATORY FACTOR 3 AND METHODS OF USE THEREOF” (Neuralexo, Inc., priority 2020, published 2022).
# Read-outs that look alike come from different tables or passages of the source.
# Tests used:
# [1] = THP1-Dual cytotoxicity (Cell Titer Glo, ATP); type: cell-based, human; settings: human, THP1-Dual cells, read-out: Thp1 cytotox CC50
# In short: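 CC50, the concentration killing half the cells, was derived from ATP-dependent CellTiter-Glo luminescence. Cells were THP1-Dual (human) and compound was tested as an 8-point dose-response series, with viability read in the same plate.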
# [2] = system: NF-κB-SEAP reporter in THP1-Dual cells; test: THP1-Dual NF-κB-SEAP reporter counterscreen; type: cell-based, human; settings: for EC50: read-out: THP1 NFkB EC50
# In short: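 Reporters measured from supernatant after 24 h compound exposure (10 μM final) in PMA-differentiated (5 ng/mL, 48 h) THP-1 Dual monocytes: ISG54/ISRE-driven Lucia via QUANTI-Luc luminescence; NF-κB-driven SEAP via QUANTI-Blue, 1 h 37° C, 630 nm. Control wells received LPS at 313 ng/mL.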
# [3] = Homo sapiens, THP1-Dual, Human Reporter Cell Line, 8-point dose response
# [4] = Homo sapiens, THP1-Dual, Human Reporter Cell Line THP1
SMILES,CC50 ([1]; Human Reporter Cell Line),"EC50 [2, 3]",CC50 ([1]; Human Reporter Cell Line THP1),"EC50 [2, 4]",other results
O=C(Nc1ccc(N2CCN(C(=O)c3cccs3)CC2)cc1)c1sc2cc(Cl)ccc2c1Cl [NA-20],11.8 µM,2.76 µM,–,–,–
Cc1ccc(NC(=O)c2cc(NC(=O)c3cccs3)ccc2N2CCOCC2)cc1Br [NB-23],–,–,30.5 µM,4.59 µM,–
COCOc1ccc2oc(-c3ccc(C)c([N+](=O)[O-])c3)nc2c1 [ND-96],–,–,30.1 µM,~4.09 µM,–
Cc1cc(NC(=O)c2sc3cc(Cl)ccc3c2Cl)ccc1NC(=O)c1ccco1 [NC-2],> 25 µM,15.4 µM,–,–,–
Cc1ccc(-c2nc3ccccc3s2)cc1NC(=O)c1cccc(Cl)c1 [ND-80],–,–,33.9 µM,~6.55 µM,–
O=C(Nc1ccc(N2CCN(C(=O)c3ccsc3)CC2)cc1)c1ccc(OCc2ccccc2)nc1 [NA-1],10.5 µM,2.07 µM,–,–,–
Cc1ccc(NC(=O)c2cc(NC(=O)c3cccs3)ccc2N2CCOCC2)cc1Cl [NB-8],–,–,> 25 µM,13.9 µM,–
Cc1ccc(NC(=O)c2cc(NC(=O)c3cccs3)ccc2N2CCOCC2)cc1 [NB-17],–,–,> 25 µM,~3.14 µM,–
"COc1cccc(COc2ccc(C(=O)Nc3ccc(N4CCN(C(=O)c5cccs5)CC4)cc3)cc2)c1 [NA-24, 4-((3-methoxybenzyl)oxy)-N-(4-(4-(thiophene-2-carbonyl)piperazin-1-yl)phenyl)benzamide]",16.8 µM,4.16 µM,–,–,–
O=C(Cc1ccc(Cl)cc1)Nc1cccc(-c2nnc(-c3ccco3)o2)c1 [ND-7],–,–,> 25 µM,6 µM,–
COc1ccc(C(=O)Nc2nc(-c3cc4ccccc4oc3=O)cs2)cc1 [ND-1],–,–,> 25 µM,~12.7 µM,–
COc1ccc(C(=O)Nc2cccc(-c3nc4ncccc4o3)c2)cc1Br [ND-47],–,–,> 25 µM,2.1 µM,–
O=C(Nc1ccc(N2CCN(C(=O)c3cccs3)CC2)cc1)c1ccc(Br)cc1 [NA-14],> 25 µM,~2.42 µM,–,–,–
O=C(Nc1ccc(N2CCN(C(=O)c3cccs3)CC2)cc1)c1ccc(-c2ccccc2)nc1 [NA-41],> 25 µM,12.5 µM,–,–,–
O=C(Nc1ccc(N2CCN(C(=O)c3cccs3)CC2)cc1)c1ccc(-c2cc3ccccc3oc2=O)cc1 [NA-32],36.6 µM,3.13 µM,–,–,–
CC(C)CC(=O)Nc1ccc2oc(-c3cccc(I)c3)nc2c1 [ND-5],–,–,> 25 µM,12.3 µM,–
Cc1ccc(NC(=O)c2cc(NC(=O)c3ccccc3)ccc2N2CCOCC2)cc1Cl [NB-1],–,–,32.8 µM,2.54 µM,–
"COc1ccc(C(=O)Nc2cc(-c3nc4cc(C)c(C)cc4o3)ccc2C)cc1[N+](=O)[O-] [ND13, N-(5-(5,6-dimethylbenzo[d]oxazol-2-yl)-2-methylphenyl)-4-methoxy-3-nitrobenzamide]",–,–,8.76 µM,0.556 µM,–
COc1ccc(C(=O)Nc2cc(-c3nc4ccccc4s3)ccc2C)cc1[N+](=O)[O-] [ND-38],–,–,–,–,EC50 ([2]; Human Reporter Cell Line THP1): ~3.12 µM

SMILES,CC50 ([1]; Human Reporter Cell Line),"EC50 [2, 3]",CC50 ([1]; Human Reporter Cell Line THP1),"EC50 [2, 4]",other results
Cc1ccc(NC(=O)c2cc(NC(=O)Cc3ccccc3)ccc2N2CCOCC2)cc1Cl [NB-3],–,–,52.5 µM,–,"activation at 25 µM ([2]; THP1-Dual, 24 h, Human Reporter Cell Line THP1, @25 uM, read-out: THP1 NFkB % activation at peak): 38%"
O=C(Nc1ccc(N2CCN(C(=O)c3cccs3)CC2)cc1)c1ccc(OCc2cccc(Cl)c2)cc1 [NA-33],9.58 µM,1.62 µM,–,–,–
O=C(Nc1ccc(N2CCN(C(=O)c3cccs3)CC2)cc1)c1ccc(-c2ccncc2)cc1 [NA-38],> 25 µM,3.46 µM,–,–,–
COc1ccc(C(=O)Nc2cc(-c3nc4cc(C(C)C)ccc4o3)ccc2C)cc1[N+](=O)[O-] [ND-2],–,–,27.6 µM,4.47 µM,–
COc1ccc(C(=O)Nc2ccc(OCc3ccccc3)cc2)cc1[N+](=O)[O-] [NA-44],50.3 µM,0.92 µM,–,–,–
"O=C(Nc1ccc(N2CCN(C(=O)c3cccs3)CC2)cc1)c1cccc2c(Br)cccc12 [NA-21, 5-bromo-N-{4-[4-(2-thienylcarbonyl)-1-piperazinyl]phenyl}-1-naphthamide]",39.4 µM,1.08 µM,–,–,–
CCOc1ccc(C(=O)Nc2ccc(N3CCN(C(=O)c4cccs4)CC3)cc2)cc1Br [NA-30],18.8 µM,1.05 µM,–,–,–
O=C(Nc1ccc(N2CCOCC2)c(C(=O)Nc2ccc(OCc3ccccc3)cc2)c1)c1cccs1 [NB-18],–,–,> 25 µM,3.66 µM,–
Cc1c(Br)ccc(C(=O)Nc2ccc(N3CCN(C(=O)c4cccs4)CC3)cc2)c1C [NA-16],> 25 µM,~5.23 µM,–,–,–
O=C(Nc1ccc(N2CCN(C(=O)c3cccs3)CC2)cc1)c1ccc(OCc2ccccc2)nc1 [NA-59],16 µM,~2.57 µM,–,–,–
"COc1ccc(C(=O)Nc2cc(-c3nc4ccccc4s3)ccc2C)cc1[N+](=O)[O-] [ND52, N-[5-(1,3-benzothiazol-2-yl)-2-methylphenyl]-4-methoxy-3-nitrobenzamide]",–,–,27.6 µM,~5.51 µM,–
"CCOc1cccc(COc2ccc(C(=O)Nc3ccc(N4CCN(C(=O)c5cccs5)CC4)cc3)cc2)c1 [NA42, 4-((3-ethoxybenzyl)oxy)-N-(4-(4-(thiophene-2-carbonyl)piperazin-1-yl)phenyl)benzamide]",121 µM,3.04 µM,–,–,–
O=C(Nc1ccc(N2CCN(C(=O)c3cccs3)CC2)cc1)c1ccc(OCc2ccc(F)c(F)c2F)cc1 [NA-23],12.7 µM,~2.31 µM,–,–,–
O=C(Nc1ccc(N2CCN(C(=O)c3cccs3)CC2)cc1)c1ccc(Cl)c2ccccc12 [NA13],> 25 µM,1.22 µM,–,–,–
Cc1ccc(COc2ccc(C(=O)Nc3ccc(N4CCN(C(=O)c5cccs5)CC4)cc3)cc2)cc1 [NA-25],35.5 µM,5 µM,–,–,–
O=C(Nc1ccc(N2CCN(C(=O)c3cccs3)CC2)cc1)c1ccc(-c2ccccc2)cn1 [NA-39],> 25 µM,7.91 µM,–,–,–
"COCOc1ccc2oc(-c3ccc(C)c(NC(=O)c4ccc(OC)c([N+](=O)[O-])c4)c3)nc2c1 [ND-95, 4-methoxy-N-(5-(5-(methoxymethoxy)benzo[d]oxazol-2-yl)-2-methylphenyl)-3-nitrobenzamide]",–,–,26.7 µM,1.27 µM,–
ClCCCOc1ccc(-c2nc3cc(OCCCN4CCCC4)ccc3o2)cc1 [ND-94],–,–,> 25 µM,~23.6 µM,–
COc1ccc(-c2nc3cc(C(C)C)ccc3o2)cc1NC(=O)c1ccc(C)c([N+](=O)[O-])c1 [ND-16],–,–,32.7 µM,3.25 µM,–
